In the NIST ThermoML archive (doi:10.1016/j.fluid.2014.01.019):
± gives the expanded uncertainty stated by the source.

Test: xn = mol fraction of the nth substance listed
Settings: 101 kPa, Liquid; for mass density: Vibrating tube method; for speed of sound: Frequency=2 MHz, Linear variable-path acoustic interferometer

Cc1ccccc1[N+](=O)[O-] [2-nitrotoluene] + OCc1ccccc1
Settings | mass density, 298.15 K [kg/m3] | mass density, 303.15 K [kg/m3] | mass density, 308.15 K [kg/m3] | mass density, 313.15 K [kg/m3] | speed of sound, 303.15 K [m/s] | speed of sound, 313.15 K [m/s]
x2 = 0.0534 | 1153.93 ± 0.19 | 1148.05 ± 0.18 | 1144.09 ± 0.18 | 1139.21 ± 0.18 | 1444 ± 9 | 1406 ± 9
x2 = 0.1227 | 1146.45 ± 0.19 | 1140.66 ± 0.18 | 1136.63 ± 0.18 | 1131.74 ± 0.18 | 1449 ± 9 | 1411 ± 9
x2 = 0.1912 | 1138.96 ± 0.18 | 1133.26 ± 0.18 | 1129.16 ± 0.18 | 1124.32 ± 0.17 | 1454 ± 9 | 1418 ± 9
x2 = 0.2352 | 1134.11 ± 0.18 | 1128.45 ± 0.18 | 1124.35 ± 0.17 | 1119.53 ± 0.17 | 1458 ± 9 | 1421 ± 9
x2 = 0.2997 | 1126.89 ± 0.18 | 1121.35 ± 0.17 | 1117.19 ± 0.17 | 1112.42 ± 0.17 | 1462 ± 9 | 1427 ± 9
x2 = 0.3713 | 1118.76 ± 0.18 | 1113.36 ± 0.17 | 1109.17 ± 0.17 | 1104.47 ± 0.17 | 1467 ± 9 | 1432 ± 9
x2 = 0.4567 | 1108.91 ± 0.17 | 1103.69 ± 0.17 | 1099.48 ± 0.17 | 1094.85 ± 0.16 | 1474 ± 9 | 1440 ± 9
x2 = 0.5416 | 1098.93 ± 0.17 | 1093.89 ± 0.16 | 1089.68 ± 0.16 | 1085.15 ± 0.16 | 1480 ± 9 | 1447 ± 9
x2 = 0.6038 | 1091.49 ± 0.16 | 1086.61 ± 0.16 | 1082.42 ± 0.16 | 1077.95 ± 0.16 | 1485 ± 9 | 1452 ± 9
x2 = 0.6536 | 1085.47 ± 0.16 | 1080.69 ± 0.16 | 1076.51 ± 0.16 | 1072.12 ± 0.16 | 1489 ± 9 | 1457 ± 9
x2 = 0.7025 | 1079.47 ± 0.16 | 1074.82 ± 0.16 | 1070.68 ± 0.16 | 1066.34 ± 0.15 | 1493 ± 9 | 1461 ± 9
x2 = 0.743 | 1074.47 ± 0.16 | 1069.91 ± 0.16 | 1065.79 ± 0.15 | 1061.49 ± 0.15 | 1495 ± 9 | 1464 ± 9
x2 = 0.8128 | 1065.71 ± 0.15 | 1061.34 ± 0.15 | 1057.26 ± 0.15 | 1053.06 ± 0.15 | 1501 ± 9 | 1471 ± 9
x2 = 0.8551 | 1060.33 ± 0.15 | 1056.07 ± 0.15 | 1052.04 ± 0.15 | 1047.91 ± 0.15 | 1505 ± 9 | 1474 ± 9
x2 = 0.9351 | 1050 ± 0.15 | 1045.96 ± 0.15 | 1042.02 ± 0.15 | 1038.01 ± 0.15 | 1510 ± 9 | 1481 ± 9

Cc1cccc([N+](=O)[O-])c1 [3-nitrotoluene] + OCc1ccccc1
Settings | mass density, 298.15 K [kg/m3] | mass density, 303.15 K [kg/m3] | mass density, 308.15 K [kg/m3] | mass density, 313.15 K [kg/m3] | speed of sound, 303.15 K [m/s] | speed of sound, 313.15 K [m/s]
x2 = 0.0537 | 1146.83 ± 0.18 | 1141.95 ± 0.18 | 1137.26 ± 0.18 | 1132.52 ± 0.18 | 1446 ± 9 | 1414 ± 9
x2 = 0.1225 | 1139.74 ± 0.18 | 1134.93 ± 0.18 | 1130.25 ± 0.18 | 1125.57 ± 0.17 | 1451 ± 9 | 1419 ± 9
x2 = 0.1914 | 1132.59 ± 0.18 | 1127.81 ± 0.18 | 1123.19 ± 0.17 | 1118.56 ± 0.17 | 1456 ± 9 | 1424 ± 9
x2 = 0.2356 | 1127.96 ± 0.18 | 1123.23 ± 0.17 | 1118.65 ± 0.17 | 1114.02 ± 0.17 | 1459 ± 9 | 1427 ± 9
x2 = 0.2992 | 1121.25 ± 0.17 | 1116.57 ± 0.17 | 1112.02 ± 0.17 | 1107.46 ± 0.17 | 1464 ± 9 | 1432 ± 9
x2 = 0.3717 | 1113.52 ± 0.17 | 1108.89 ± 0.17 | 1104.4 ± 0.17 | 1099.9 ± 0.17 | 1469 ± 9 | 1438 ± 9
x2 = 0.4567 | 1104.33 ± 0.17 | 1099.76 ± 0.17 | 1095.34 ± 0.16 | 1090.91 ± 0.16 | 1476 ± 9 | 1444 ± 9
x2 = 0.5413 | 1095.03 ± 0.16 | 1090.53 ± 0.16 | 1086.18 ± 0.16 | 1081.85 ± 0.16 | 1481 ± 9 | 1452 ± 9
x2 = 0.6035 | 1088.09 ± 0.16 | 1083.66 ± 0.16 | 1079.37 ± 0.16 | 1075.08 ± 0.16 | 1486 ± 9 | 1456 ± 9
x2 = 0.6539 | 1082.39 ± 0.16 | 1078.02 ± 0.16 | 1073.77 ± 0.16 | 1069.5 ± 0.15 | 1490 ± 9 | 1460 ± 9
x2 = 0.7023 | 1076.86 ± 0.16 | 1072.56 ± 0.16 | 1068.36 ± 0.15 | 1064.17 ± 0.15 | 1494 ± 9 | 1463 ± 9
x2 = 0.7437 | 1072.1 ± 0.16 | 1067.84 ± 0.15 | 1063.65 ± 0.15 | 1059.52 ± 0.15 | 1496 ± 9 | 1467 ± 9
x2 = 0.8121 | 1064.1 ± 0.15 | 1059.94 ± 0.15 | 1055.82 ± 0.15 | 1051.76 ± 0.15 | 1502 ± 9 | 1472 ± 9
x2 = 0.8556 | 1058.96 ± 0.15 | 1054.85 ± 0.15 | 1050.78 ± 0.15 | 1046.79 ± 0.15 | 1505 ± 9 | 1475 ± 9
x2 = 0.9354 | 1049.37 ± 0.15 | 1045.39 ± 0.15 | 1041.41 ± 0.15 | 1037.5 ± 0.14 | 1511 ± 9 | 1481 ± 9
